Test [1] deals with T1, Peroxisome proliferator-activated receptor alpha (Homo sapiens) (UniProt Q07869).
T1 sequence (whole entry): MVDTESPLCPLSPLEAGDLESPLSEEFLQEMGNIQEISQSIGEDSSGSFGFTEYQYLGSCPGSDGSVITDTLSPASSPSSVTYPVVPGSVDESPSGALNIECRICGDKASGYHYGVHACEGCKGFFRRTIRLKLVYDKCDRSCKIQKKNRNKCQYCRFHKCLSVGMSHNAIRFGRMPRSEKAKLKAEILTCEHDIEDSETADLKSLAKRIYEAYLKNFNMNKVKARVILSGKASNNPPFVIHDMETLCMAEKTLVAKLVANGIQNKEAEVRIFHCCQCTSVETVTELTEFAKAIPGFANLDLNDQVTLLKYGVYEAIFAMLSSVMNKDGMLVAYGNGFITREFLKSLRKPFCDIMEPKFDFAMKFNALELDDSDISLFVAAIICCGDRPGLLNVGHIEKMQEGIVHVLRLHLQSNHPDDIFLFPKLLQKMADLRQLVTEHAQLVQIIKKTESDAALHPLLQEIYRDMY
As to the kind of experiment: Binding affinity to GST-PPAR-alpha LBP (unknown origin) at 1 uM by TR-FRET assay. A general note: TR-FRET usually uses a lanthanide donor and a delayed reading to cut background.

Test [2] concerns the target T1, Peroxisome proliferator-activated receptor alpha (Homo sapiens). As to the kind of experiment: Binding affinity to GST-PPAR-alpha LBP (unknown origin) at 1 uM after 2 hrs by TR-FRET assay.
For test [3], the target named is T2, Peroxisome proliferator-activated receptor delta (Homo sapiens, UniProt Q03181).
T2 sequence (Q03181 whole entry): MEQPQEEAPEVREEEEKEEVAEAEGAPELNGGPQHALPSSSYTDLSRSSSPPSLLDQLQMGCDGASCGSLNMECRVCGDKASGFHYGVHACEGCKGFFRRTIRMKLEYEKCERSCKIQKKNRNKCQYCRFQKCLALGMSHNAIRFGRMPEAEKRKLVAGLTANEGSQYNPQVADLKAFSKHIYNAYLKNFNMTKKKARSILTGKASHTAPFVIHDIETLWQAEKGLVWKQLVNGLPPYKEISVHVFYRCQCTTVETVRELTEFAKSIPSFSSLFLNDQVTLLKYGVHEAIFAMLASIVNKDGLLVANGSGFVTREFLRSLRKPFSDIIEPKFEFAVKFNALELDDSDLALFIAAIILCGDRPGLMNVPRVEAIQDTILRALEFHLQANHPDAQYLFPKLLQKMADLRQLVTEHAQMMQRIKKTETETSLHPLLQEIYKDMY
As to the kind of experiment: Binding affinity to GST-PPAR-beta/delta LBP (unknown origin) after 40 mins by TR-FRET assay.

The target in test [4] is T2, Peroxisome proliferator-activated receptor delta. Nature of the test: Binding affinity to GST-PPAR-beta/delta LBP (unknown origin) after 3 hrs by TR-FRET assay.
Test [5] has the same target. As to the kind of experiment: Binding affinity to GST-PPAR-beta/delta LBP (unknown origin) after 2 hrs by TR-FRET assay.
For test [6] the target is unchanged. Nature of the test: Binding affinity to GST-PPAR-beta/delta LBP (unknown origin) after 20 mins by TR-FRET assay.
Test [7] has the same target. As to the kind of experiment: Binding affinity to GST-PPAR-beta/delta LBP (unknown origin) after 24 hrs by TR-FRET assay.
For test [8] the target is unchanged. Nature of the test: Binding affinity to GST-PPAR-beta/delta LBP (unknown origin) after 1 hr by TR-FRET assay.
In test [9] the target is T3, Peroxisome proliferator-activated receptor gamma (Homo sapiens) (UniProt P37231).
T3 sequence (whole entry): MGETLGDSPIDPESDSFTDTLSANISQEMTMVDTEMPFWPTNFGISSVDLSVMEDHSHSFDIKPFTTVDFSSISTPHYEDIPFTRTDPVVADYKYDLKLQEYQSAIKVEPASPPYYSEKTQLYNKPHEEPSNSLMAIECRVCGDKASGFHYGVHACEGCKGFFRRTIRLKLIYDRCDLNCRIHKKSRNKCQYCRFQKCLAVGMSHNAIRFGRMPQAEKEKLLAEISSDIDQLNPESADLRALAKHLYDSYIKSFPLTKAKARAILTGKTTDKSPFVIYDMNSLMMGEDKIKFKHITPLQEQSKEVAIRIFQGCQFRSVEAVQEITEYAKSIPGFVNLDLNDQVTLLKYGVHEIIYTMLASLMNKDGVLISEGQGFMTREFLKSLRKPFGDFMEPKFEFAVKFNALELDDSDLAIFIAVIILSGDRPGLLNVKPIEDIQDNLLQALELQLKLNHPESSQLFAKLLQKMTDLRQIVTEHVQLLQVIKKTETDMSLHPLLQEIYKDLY
As to the kind of experiment: Binding affinity to GST-PPAR-gamma LBP (unknown origin) at 1 uM after 1 hr by TR-FRET assay.

The target in test [10] is T4, Peroxisome proliferator-activated receptor delta (Homo sapiens) (UniProt Q03181).
T4 sequence (whole entry): T2 sequence (Q03181 whole entry)
As to the kind of experiment: Binding affinity to GST-PPAR-beta/delta LBP (unknown origin) at 1 uM after 1 hr by TR-FRET assay.

The target of test [11] is T3, Peroxisome proliferator-activated receptor gamma (Homo sapiens). As to the kind of experiment: Binding affinity to GST-PPAR-gamma LBP (unknown origin) at 10 uM after 24 hrs by TR-FRET assay.
Test [12] shares this target. Nature of the test: Binding affinity to GST-PPAR-gamma LBP (unknown origin) at 10 uM after 1 hr by TR-FRET assay.
Test [13] addresses T1, Peroxisome proliferator-activated receptor alpha (Homo sapiens). As to the kind of experiment: Binding affinity to GST-PPAR-alpha LBP (unknown origin) at 1 and 10 uM after 24 hrs by TR-FRET assay.
The target in test [14] is T3, Peroxisome proliferator-activated receptor gamma (Homo sapiens). Nature of the test: Binding affinity to GST-PPAR-gamma LBP (unknown origin) at 1 uM after 24 hrs by TR-FRET assay.
Test [15] concerns the target T1, Peroxisome proliferator-activated receptor alpha (Homo sapiens). Nature of the test: Binding affinity to GST-PPAR-alpha LBP (unknown origin) at 1 and 10 uM after 1 hr by TR-FRET assay.

This is an account of results in ChEMBL document CHEMBL3739302, “Synthesis of 5-trifluoromethyl-2-sulfonylpyridine PPARβ/δ antagonists: Effects on the affinity and selectivity towards PPARβ/δ” (Bioorg Med Chem, 2016).

The source made the active and inactive calls. No cut-off for these calls is given here.

By IC50 is commonly meant the concentration at which inhibition is half-maximal. Read a low IC50 as greater potency in that assay.

Regarding `O=C(NCCS(=O)(=O)c1ccc(C(F)(F)F)cn1)c1ccccc1`, in [1], the result was Active.
`O=C(NCCS(=O)(=O)c1ccc(C(F)(F)F)cn1)c1cccc2ccncc12`: the outcome in [1] was Active.
For the compound `O=C(NCCS(=O)(=O)c1ccc(C(F)(F)F)cn1)c1cc2ccccc2cn1`, the outcome in test [1] was Active.
As to `O=C(NCCS(=O)(=O)c1ccc(C(F)(F)F)cn1)c1ccnc2ccccc12`, the outcome in test [1] and in [2] was Active.
Consider `O=C(NCCS(=O)(=O)c1ccc(C(F)(F)F)cn1)c1ccc2ncccc2c1`, for which the result in [1] was Active.
Consider `O=C(NCCS(=O)(=O)c1ccc(C(F)(F)F)cn1)c1cncc2ccccc12`, for which the outcome in test [1] was Active.
As to `CN1CCN(c2ccc(/C=C(\C#N)c3ccccc3Br)cc2)CC1`, the IC50 is 30.4 nM in test [3]; 40.1 nM in test [4]; 37 nM in test [5]; 29 nM in [6]; 48 nM in test [7]; 32.7 nM in test [8].
For `CCN(CCS(=O)(=O)c1ccc(C(F)(F)F)cn1)C(=O)c1ccc2ccccc2c1`, the result in test [1] was Active.
On to `O=C(NCCS(=O)(=O)c1ccc(C(F)(F)F)cn1)c1cccc2c1CCCC2`, for which the outcome in test [1] and in test [9] was Active.
As for `O=C(NCCS(=O)(=O)c1ccc(C(F)(F)F)cn1)C12CC3CC(CC(C3)C1)C2`, the outcome in test [1] was Active.
As to `O=C(CCCS(=O)(=O)c1ccc(C(F)(F)F)cn1)c1ccc2ccccc2c1`, the outcome in test [1] was Active.
Regarding `COc1ccc(C(=O)NCCS(=O)(=O)c2ccc(C(F)(F)F)cn2)cc1`, the result in test [10] and in test [1] was Active.
As to `O=C(NCCS(=O)(=O)c1ccc(C(F)(F)F)cn1)c1cnc2ccccc2c1`, the IC50 in test [3] was 17600 nM; in [4], 1430 nM; in test [5] it was 2320 nM; in test [7], 241 nM; in test [8], 6820 nM. The outcome in test [11], in [12], in test [14] and in test [9] was Active. Further, the result in test [13] and in test [15] was inactive.
On to `O=C(CCCS(=O)(=O)c1ccc(C(F)(F)F)cn1)c1cccc2ccccc12`, for which the outcome in [1] was Active.
In the case of `O=C(NCCS(=O)(=O)c1ccc(C(F)(F)F)cn1)c1ccc2ccccc2n1`, in [1], the result was Active.
Regarding `O=C(NCCS(=O)(=O)c1ccc(C(F)(F)F)cn1)c1ccc2ccccc2c1`, the IC50 amounted to 930 nM in [3]; 320 nM in test [4]; 448 nM in [5]; 1930 nM in test [6]; 751 nM in [8]. Further, the outcome in test [11], in [10], in test [12], in test [14], in test [1] and in test [9] was Active. For the same compound, the outcome in [13] and in test [15] was inactive.
Take `CN(CCS(=O)(=O)c1ccc(C(F)(F)F)cn1)C(=O)c1ccc2ccccc2c1`: the result in test [1] and in test [9] was Active.
For the compound `O=C(NCCS(=O)(=O)c1ccc(C(F)(F)F)cn1)c1nccc2ccccc12`, the outcome in test [1] and in test [9] was Active.
With `O=C(NCCS(=O)(=O)c1ccc(C(F)(F)F)cn1)c1cccc2ncccc12`, the outcome in test [1] was Active.
For `O=C(NCCS(=O)(=O)c1ccc(C(F)(F)F)cn1)c1cccc2cccnc12`, the result in test [1] was Active.
Consider `O=C(NCCS(=O)(=O)c1ccc(C(F)(F)F)cn1)c1cccnc1`, for which the result in test [1] was Active.
Take `Cc1nc(-c2ccc(C(F)(F)F)cc2)sc1C(=O)NCCS(=O)(=O)c1ccc(C(F)(F)F)cn1`: the IC50 in test [3] is 581 nM; in test [4], 284 nM; in [5], 301 nM; in [6], 949 nM; in [8] it was 423 nM. In addition, the result in [13] and in [15] was inactive. For the same compound, the result in test [9] was Active.
For the compound `O=C(NCCS(=O)(=O)c1ccc(C(F)(F)F)cn1)c1ccc(Cl)cc1`, the IC50 is 825 nM in [3]; 233 nM in [4]; 284 nM in [5]; 1330 nM in test [6]; 1.21 nM in test [7]; 648 nM in test [8]. The outcome in [11], in test [12] and in test [9] was Active. Moreover, the result in test [13] and in test [15] was inactive.
In the case of `O=C(NCCS(=O)(=O)c1ccc(C(F)(F)F)cn1)c1ccc2cnccc2c1`, the outcome in test [1] was Active.
For the compound `CC(C)(C)C(=O)NCCS(=O)(=O)c1ccc(C(F)(F)F)cn1`, the result in test [1] was Active.
On to `CC(C)C(=O)NCCS(=O)(=O)c1ccc(C(F)(F)F)cn1`, for which the outcome in test [1] was Active.
`O=C(NCCS(=O)(=O)c1ccc(C(F)(F)F)cn1)c1cccc2ccccc12`: the outcome in [10], in test [1] and in test [9] was Active.
Regarding `O=C(NCCS(=O)(=O)c1ccc(C(F)(F)F)cn1)c1ccc2ccncc2c1`, the result in test [1] and in test [9] was Active.
With `O=C(NCCS(=O)(=O)c1ccc(C(F)(F)F)cn1)c1cccc2cnccc12`, the outcome in test [1] was Active.
On to `O=C(NCCS(=O)(=O)c1ccc(C(F)(F)F)cn1)c1ccc2c(c1)CCCC2`, for which the 50% inhibitory concentration (IC50) in [3] was 1960 nM; in [4], 598 nM; in test [5], 907 nM; in [6] it was 4220 nM; in test [7], 271 nM; in test [8], 1530 nM. Moreover, the outcome in test [11], in [12], in [14] and in [9] was Active. In addition, the outcome in test [13] and in [15] was inactive.
Regarding `O=C(c1ccc2ccccc2c1)N(CCS(=O)(=O)c1ccc(C(F)(F)F)cn1)Cc1ccccc1`, the result in [1] was Active.
Turning to `O=C(NCCS(=O)(=O)c1ccc(C(F)(F)F)cn1)c1ccc(F)cc1`, the outcome in [10], in [1] and in [9] was Active.
Take `O=C(NCCS(=O)(=O)c1ccc(C(F)(F)F)cn1)c1ccc2cccnc2c1`: the outcome in test [1] was Active.
For the compound `O=C(COc1ccccc1)NCCS(=O)(=O)c1ccc(C(F)(F)F)cn1`, in test [1], the outcome was Active.
